{
  "source": "patent US11072632B2",
  "about": "“Inhibitors of 17β-HSD1, 17β-HSD3 and 17β-HSD10” (UNIVERSITÉ LAVAL, priority 2011, dated 2021)",
  "key": {"17β-HSD10 [1]": {"biological_target": "T1, 17β-HSD10 (Homo sapiens, UniProt Q99714)", "T1 construct": "expressed in transfected cells", "T1 sequence (Q99714 1-261)": "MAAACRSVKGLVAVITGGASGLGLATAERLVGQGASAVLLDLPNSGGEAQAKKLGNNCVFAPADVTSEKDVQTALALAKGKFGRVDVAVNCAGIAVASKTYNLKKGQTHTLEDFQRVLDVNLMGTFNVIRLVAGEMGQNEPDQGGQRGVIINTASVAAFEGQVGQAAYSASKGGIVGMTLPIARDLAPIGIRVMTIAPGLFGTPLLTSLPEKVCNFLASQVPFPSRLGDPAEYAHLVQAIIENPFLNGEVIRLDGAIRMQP", "test": "Inhibition of 17β-HSD10 in stably transfected HEK-293 whole cells (E2 into E1)", "assay_type": "cell-based"}, "17β-HSD10 [2]": {"biological_target": "T1, 17β-HSD10", "conditions": "read-out: Km of the enzyme for E2 as a substrate; cited from earlier work"}, "[3]": {"system": "ovariectomized (OVX) mice", "test": "In vivo estrogenic activity (uterotrophic assay) in OVX mice", "set-up": "species or system mouse", "conditions": "OVX mice, s.c. BID, 7 days", "protocol": "The mice were fed rodent chow and tap water ad libitum. The animals were ovariectomized (OVX) under isoflurane-anaesthesia via bilateral flank incisions and randomly assigned to groups (5 animals by group). Mice in the OVX control group received the vehicle alone (8% ethanol-0.4% methylcellulose) during the 7-day period. The possible estrogenic activity of tested compounds was evaluated after their administration by subcutaneous (s.c.) injection [1, 10 and 100 μg/kg, s.c., twice daily (BID)] as suspension in 8% ethanol-0.4% methylcellulose to OVX female mice for 7 days. On day 8, the mice were sacrificed by cervical dislocation. The uteri and vagina were rapidly removed, freed from fat and connective tissue and weighed. Results are the means±SEM of 5 mice per group."}, "[4]": {"system": "ovariectomized (OVX) BALB/c mice", "test": "In vivo estrogenicity assay in OVX mice (uterus, vagina weight)", "set-up": "species or system mouse", "conditions": "OVX mice, s.c., 0.02 μg/mouse/day", "protocol": "Female ovariectomized (OVX) BALB/c mice weighing approximately 20 g were obtained from Charles-River, Inc. (St-Constant, Qc., Canada). The animals were housed 5 per cage. Groups of 5 mice were treated with E1 (0.02 μg in 8% EtOH/92% PG) or 17β-HSD1 inhibitor at 10, 50 and 250 μg (0.1 mL s.c.) daily for 7 days. Animals were killed 24 h after administration of the last dose of compound and uteri and vagina were removed, excised of fat and weighed. Total body weights of mice were also recorded."}, "T-47D tumors": {"system": "T-47D tumors", "test": "Inhibition of E1-stimulated T-47D tumor growth in nude OVX mice (xenograft)", "assay_type": "in vivo, mouse", "protocol": "Female OVX BALB/c athymic nude mice weighing approximately 20 g were obtained from Charles-River, Inc. (St-Constant, Qc., Canada). The animals were housed 5 per cage. […] T-47D tumor growth was stimulated using 0.1 μg of E1 s.c. per mouse per day for 15 days. From day 16, animals with tumors were randomized in function of tumor volume and separated into three groups. Group 1 (control mice) was treated s.c. with 100 μL of vehicle alone (8% EtOH/92% PG) per mouse per day. Group 2 (E1 0.1 μg) was treated with E1 (0.1 μg/day, s.c. per mouse) during 32 days. Group 3 (E1 0.1 μg+Compound V 250 μg) was treated with E1 (0.1 μg/day) and Compound V (250 μg/day) per mouse in a combined s.c. injection for 32 days. The mice were weighed at start and volumes of tumors were determined by external caliper twice a week and the greatest longitudinal diameter (length) and the greatest transverse diameter (width) were determined. Tumor volume based on caliper measurements was calculated by the modified ellipsoidal formula: Tumor volume=½(length×width^2) (Jensen M M, Jorgensen J T, Binderup T, Kjaer A. Tumor volume in subcutaneous mouse xenografts measured by microCT is more accurate and reproducible than determined by 18F-FDG-microPET or external caliper. BMC Med Imaging 2008; 8:16). At the end of the studies the mice were terminally anaesthetized, final body weights and tumor sizes were determined. Uteri and vagina were removed, excised of fat and weighed (Day J M, Foster P A, Tutill H J, Parsons M F, Newman S P, Chander S K, et al. 17beta-hydroxysteroid dehydrogenase type 1, and not type 12, is a target for endocrine therapy of hormone-dependent breast cancer. Int J Cancer 2008; 122:1931-40; Husen B, Huhtinen K, Poutanen M, Kangas L, Messinger J, Thole H. Evaluation of inhibitors for 17beta-hydroxysteroid dehydrogenase type 1 in vivo in immunodeficient mice inoculated with MCF-7 cells stably expressing the recombinant human enzyme. Mol Cell Endocrinol 2006; 248:109-13; Husen B, Huhtinen K, Saloniemi T, Messinger J, Thole H H, Poutanen M: Human hydroxysteroid (17-beta) dehydrogenase 1 expression enhances estrogen sensitivity of MCF-7 breast cancer cell xenografts. Endocrinology 2006; 147:5333-9; Messinger J, Hirvela L, Husen B, Kangas L, Koskimies P, Pentikainen O, et al. New inhibitors of 17beta-hydroxysteroid dehydrogenase type 1. Mol Cell Endocrinol 2006; 248:192-8)."}, "T-47D cells": {"system": "T-47D cells", "test": "Inhibition of E1-stimulated T-47D cell proliferation", "assay_type": "cell-based, human", "conditions": "E1 0.1 nM, no inhibitor; control 100%", "protocol": "Quantification of cell growth was determined by using CellTiter 96®Aqueous Solution Cell Proliferation Assay (Promega, Nepean, ON, Canada) following the manufacturer's instructions. T-47D cells were resuspended with the medium supplemented with insulin (50 ng/mL) and 5% dextran-coated charcoal treated FBS rather than 10% FBS to remove remaining hormones. Aliquots (100 μL) of the cell suspension were seeded in 96-well plates (3000 cells/well). After 48 h, the medium was changed with a new one containing an appropriate concentration of products to be tested and was replaced every 2 days. Cells have grown either in absence or presence of the compounds for 7 days. To determine the proliferative (estrogenic) activity, the estrogen-sensitive T-47D cells were grown in absence (basal cell proliferation was fixed as 100%) or presence of compounds to be tested at 0.5 to 10 μM. The potent estrogen E2 was used as a reference control. […] The cell proliferation without E1±inhibitor (control) was fixed as 100%. To determine the potential antiestrogenic activity of inhibitor Compound V, the T-47D (ER^+) cells were grown in the presence of estrogen E2 (0.1 nM) and pure antiestrogen EM-139 (0.5 μM) or inhibitor Compound V (0.5 μM). The cell proliferation without E2 and tested compounds (control) were fixed as 100%."}},
  "data": [
    {"compound": "C[C@]12CC[C@@H]3c4ccc(O)cc4CC[C@H]3[C@@H]1CC[C@@H]2O", "note": "[17β-E2 (1), 17β-estradiol]", "values": [
      {"measurement": "IC50", "setting": "17β-HSD10 [1]", "result": "> 10", "unit": "µM"},
      {"measurement": "Km", "setting": "17β-HSD10 [2]", "result": 43, "unit": "µM"},
      {"measurement": "uterine weight", "setting": "[3]; 1 μg/kg", "result": 125, "unit": "mg"},
      {"measurement": "uterine weight", "setting": "[3]; 10 μg/kg", "result": 155, "unit": "mg"},
      {"measurement": "uterine weight", "setting": "[3]; 100 μg/kg", "result": 160, "unit": "mg"}
    ]},
    {"compound": "C[C@]12CC[C@@H]3c4ccc(O)cc4CC[C@H]3[C@@H]1CCC2=O", "note": "[Compound E1, estrone, reference compound]", "values": [
      {"measurement": "increase in uterine weight compared to OVX-CTR (times)", "setting": "[4]", "result": 2.5},
      {"measurement": "uterine weight", "setting": "[4]", "result": 55, "unit": "mg"},
      {"measurement": "tumor size, % of initial size", "setting": "T-47D tumors; E1 0.1 μg/day s.c. alone, 32 days", "result": 136, "unit": "%"},
      {"measurement": "effect on mouse weight", "setting": "T-47D tumors; mouse, in vivo", "result": "no effect"},
      {"measurement": "cell growth induced by E1 alone", "setting": "T-47D cells", "result": 250, "unit": "%"}
    ]}
  ]
}
